Experimental data from patent publication US20240246905A1 (University of Leicester, priority 2021, published 2024).

Assays:
MSSA 476 [1] = experiment: MIC, broth micro-dilution; assay type: cell-based, Staphylococcus aureus
How it was run: (§1)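 Broth micro-dilution followed CLSI 2017: 1:2 antibiotic dilutions in TSB were inoculated at 5×10^5 CFU/mL. OD was recorded every 12 min over 18 h at 37 °C, and MIC was derived from sigmoidal dose-response fits.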

MRSA 252 [2] = experiment: MIC, broth micro-dilution; assay type: cell-based, Staphylococcus aureus
How it was run: as §1

MSSA 476 [3] = experiment: Disc diffusion (Kirby-Bauer), zone of inhibition; assay type: cell-based, Staphylococcus aureus; conditions: 500 μg/mL, '/' = no zone
How it was run: (§2)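 Kirby-Bauer per CLSI 2017: 1 in 200 dilutions of overnight cultures (LB for Gram-negatives, TSB for Gram-positives) spread on Mueller-Hinton agar. Discs loaded with 50 μL antibiotic were added and plates incubated 24 h at 37 °C. Zone of inhibition recorded.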

MRSA 252 [4] = experiment: Disc diffusion (Kirby-Bauer), zone of inhibition; assay type: cell-based, Staphylococcus aureus; conditions: 500 μg/mL, '/' = no zone
How it was run: as §2

red blood cells = experiment: Hemolysis assay (CO-ADD); assay type: cell-based; conditions: 32 μg/mL highest concentration tested
From the text: A problem often encountered by emerging drugs is hemolysis, also known as drug-induced immune hemolytic anemia.

HEK293 cells = experiment: Cytotoxicity assay, resazurin (CO-ADD)
How it was run: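 HEK293 cells in DMEM with 10% FBS were exposed to compounds at a single concentration of 32 μg/mL for 20 h at 37° C, 5% CO2. Viability read by resazurin fluorescence (2.3 μg/mL final, 3 h; F560/590). CC50 from sigmoidal dose-response fitting.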

[5] = test system: Staphylococcus aureus 15981; experiment: Disc diffusion (Kirby-Bauer), zone of inhibition; assay type: cell-based; conditions: Staphylococcus aureus 15981; 500 μg/mL; '/' = no zone
How it was run: as §2

Escherichia coli DH5α = experiment: Disc diffusion (Kirby-Bauer), zone of inhibition; assay type: cell-based; conditions: Escherichia coli DH5α; 500 μg/mL; '/' = no zone
How it was run: as §2

[6] = test system: various Staphylococcus aureus strains; experiment: Disc diffusion, Staphylococcus aureus strain study; assay type: cell-based; conditions: 500 μg/mL
How it was run: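 Kirby-Bauer disc diffusion on Mueller-Hinton agar spread with 1:200 dilution of overnight S. aureus cultures (TSB, 37 °C). Discs loaded with 50 μL of compound at 500 μg/mL; zone of inhibition recorded after 24 h at 37 °C.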

(2-Isocyanovinyl)-4-acetaamido benzene [Compound 22]
>32000 ng/mL: Concentration toxic to HEK 293 cells (HEK293 cells; HEK 293)
19 mm: Zone of inhibition ([6]; strain USFL 054)
>32 µg/mL: Hemolytic activity (HC10) (red blood cells)
20 mm: Zone of inhibition (MRSA 252 [4]) | Zone of inhibition (Escherichia coli DH5α) | Zone of inhibition ([6]; strain ASARM 71) | Zone of inhibition ([6]; strain ASARM 73) | Zone of inhibition ([6]; strain EOE 3) | Zone of inhibition ([6]; strain EOE 30) | Zone of inhibition ([6]; strain EOE 41) | Zone of inhibition ([6]; strain MRSA 252) | Zone of inhibition ([6]; strain S295_1_1) | Zone of inhibition ([6]; strain S295_1_2) | Zone of inhibition ([6]; strain S295_1_3) | Zone of inhibition ([6]; strain S364_5_12) | Zone of inhibition ([6]; strain Sa_TPS 3026) | Zone of inhibition ([6]; strain Sa_TPS 3104)
16 mm: Zone of inhibition (MSSA 476 [3]) | Zone of inhibition ([6]; strain EOE 54) | Zone of inhibition ([6]; strain S139_7_7) | Zone of inhibition ([6]; strain USFL 012) | Zone of inhibition ([6]; strain USFL 020) | Zone of inhibition ([6]; strain USFL 021) | Zone of inhibition ([6]; strain USFL 035)
55 µg/mL: MIC (MRSA 252 [2])
22 mm: Zone of inhibition ([6]; strain ASARM 72) | Zone of inhibition ([6]; strain ASARM 75) | Zone of inhibition ([6]; strain ASARM 79) | Zone of inhibition ([6]; strain EOE 23) | Zone of inhibition ([6]; strain EOE 42) | Zone of inhibition ([6]; strain EOE 52) | Zone of inhibition ([6]; strain S197_1_1) | Zone of inhibition ([6]; strain S197_1_10) | Zone of inhibition ([6]; strain S364_5_11) | Zone of inhibition ([6]; strain Sa_TPS 3072) | Zone of inhibition ([6]; strain Sa_TPS 3103)
no toxicity: toxicity towards the HEK293 cell line (in words) (HEK293 cells; set concentration of 32 μg/mL)
26 mm: Zone of inhibition ([6]; strain ASARM 76) | Zone of inhibition ([6]; strain ASARM 80) | Zone of inhibition ([6]; strain EOE 45) | Zone of inhibition ([6]; strain S197_1_9) | Zone of inhibition ([6]; strain Sa_TPS 3106)
14 mm: Zone of inhibition ([6]; strain USFL 008) | Zone of inhibition ([6]; strain USFL 009)
15 mm: Zone of inhibition ([6]; strain USFL 028)
172 µg/mL: MIC (MSSA 476 [1])
18 mm: Zone of inhibition [5] | Zone of inhibition ([6]; strain ASARM 61) | Zone of inhibition ([6]; strain ASARM 70) | Zone of inhibition ([6]; strain EOE 35) | Zone of inhibition ([6]; strain EOE 57) | Zone of inhibition ([6]; strain Sa_TPS 3118) | Zone of inhibition ([6]; strain Sa_TPS 3133) | Zone of inhibition ([6]; strain Sa_TPS 3134) | Zone of inhibition ([6]; strain USFL 016) | Zone of inhibition ([6]; strain USFL 018) | Zone of inhibition ([6]; strain not given)
24 mm: Zone of inhibition ([6]; strain ASARM 77) | Zone of inhibition ([6]; strain S197_1_8) | Zone of inhibition ([6]; strain Sa_TPS 3092) | Zone of inhibition ([6]; strain Sa_TPS 3097)
